Results taken from DBAASP.
Converted amounts (≈) assume the structure as drawn.

Experiments:
Assay in all cases: ≥ marks a high value that may be exact or a test limit, other limits are often not marked, values filed in µg/mL are converted to µM
[1] = system: Escherichia coli ATCC 25922
[2] = system: Bacillus subtilis ATCC 6633
Escherichia coli O111 = system: Escherichia coli O111
[3] = system: Staphylococcus aureus FDA 209P
Cladosporium herbarum = system: Cladosporium herbarum
[4] = system: Xanthomonas vesicatoria DSM 50861
[5] = system: Pseudomonas syringae pv. tomato DC3000
[6] = system: Pseudomonas syringae pv. syringae DSM 10604
[7] = system: Pseudomonas corrugata DSM 7228
Botrytis cinerea = system: Botrytis cinerea
[8] = system: Clavibacter michiganensis subsp. michiganensis DSM 46294
Alternaria alternata = system: Alternaria alternata
[9] = system: Pectobacterium carotovorum subsp. carotovorum DSM 30168
[10] = system: Staphylococcus aureus 90857
[11] = system: Staphylococcus aureus ATCC 15752
[12] = system: Saccharomyces cerevisiae ATCC 44774
[13] = system: Pseudomonas aeruginosa ATCC 27853
[14] = system: Candida albicans ATCC 10231
[15] = system: Enterococcus faecalis ATCC 29212
[16] = system: Cryptococcus neoformans ATCC 34881
[17] = system: Bacillus subtilis KCTC 3038
[18] = system: Micrococcus luteus ATCC 10240
[19] = system: Escherichia coli ATCC 27325
[20] = system: Salmonella typhimurium KCTC 2370
Escherichia coli AS1.349 = system: Escherichia coli AS1.349
[21] = system: Lactococcus lactis AS1.1690
[22] = system: Enterococcus faecalis CGMCC 1.595
[23] = system: Pseudomonas aeruginosa CGMCC 1.860
[24] = system: Enterococcus faecium CGMCC 1.2334
Bacillus cereus AS1.126 = system: Bacillus cereus AS1.126
[25] = system: Staphylococcus aureus AS1.72
[26] = system: Listeria monocytogenes LO28
[27] = system: Cronobacter sakazakii DPC 6440

Question: For `CC[C@H](C)[C@H](NC(=O)[C@@H](NC(=O)CN)C(C)C)C(=O)N[C@H](C(=O)N[C@@H](CC(=O)O)C(=O)N[C@@H](C)C(=O)N[C@@H](CC(C)C)C(=O)N[C@@H](CCCCN)C(=O)NCC(=O)N[C@@H](C)C(=O)N[C@@H](C)C(=O)N[C@@H](CCCCN)C(=O)N[C@H](C(=O)N[C@H](C(=O)N[C@@H](C)C(=O)N[C@@H](C)C(=O)N[C@@H](CCC(=O)O)C(=O)N[C@@H](CC(C)C)C(=O)N[C@@H](CC(C)C)C(=O)N[C@@H](CCCN=C(N)N)C(=O)N[C@@H](CCCCN)C(=O)N[C@@H](C)C(=O)N[C@@H](Cc1cnc[nH]1)C(=O)N[C@H]1CSSC[C@@H](C(=O)O)NC(=O)[C@H](CO)NC(=O)[C@H](CC(N)=O)NC(=O)[C@H]([C@@H](C)O)NC(=O)[C@H](CC(C)C)NC(=O)[C@H](CCCCN)NC1=O)C(C)C)[C@@H](C)O)[C@@H](C)O` [GVITDALKGAAKTVAAELLRKAHCKLTNSC], which MIC [1] is on record?
Answer: 2.66 µM (≈ 8.19 µg/mL)

Question: What about the MIC [2] of the same compound?
Answer: 20.8 µM (≈ 64 µg/mL)

Question: And the MIC (Escherichia coli O111)?
Answer: 2.66 µM (≈ 8.19 µg/mL)

Question: And the MIC [3]?
Answer: 5.35 µM (≈ 16.5 µg/mL)

Question: What does the source list for `CC[C@H](C)[C@H](NC(=O)[C@@H](NC(=O)CNC(=O)[C@H](C)NC(=O)[C@H](CCSC)NC(=O)[C@@H](NC(=O)CNC(=O)[C@H](Cc1ccccc1)NC(=O)[C@@H](NC(=O)[C@H](CC(C)C)NC(=O)[C@@H](NC(=O)[C@H](CC(C)C)NC(=O)[C@H](CCCCN)NC(=O)[C@H](CCCN=C(N)N)NC(=O)[C@@H](N)CCCCN)[C@@H](C)O)C(C)C)C(C)C)C(C)C)C(=O)NCC(=O)N[C@H](C(=O)N[C@@H](CCCCN)C(=O)N[C@@H](CCCCN)C(=O)N[C@@H](CCCN=C(N)N)C(N)=O)[C@@H](C)O` [KRKLTLVFGVMAGVIGTKKR]?
Answer: MIC (Cladosporium herbarum): ≥ 45.4 µM; MIC [4]: 18.2 µM (≈ 40 µg/mL); MIC [5]: 18.2 µM (≈ 40 µg/mL); MIC [6]: 18.2 µM (≈ 40 µg/mL); MIC [7]: 18.2 µM (≈ 40 µg/mL); MIC (Botrytis cinerea): ≥ 45.4 µM; MIC [8]: 9.08 µM (≈ 20 µg/mL); MIC (Alternaria alternata): ≥ 45.4 µM; MIC [9]: 18.2 µM (≈ 40 µg/mL)

Question: How did the MIC (Cladosporium herbarum) turn out when `CC(C)C[C@H](NC(=O)[C@H](CC(C)C)NC(=O)[C@H](CCCCN)NC(=O)[C@H](CCCCN)NC(=O)[C@H](CC(C)C)NC(=O)[C@H](CC(C)C)NC(=O)[C@H](CCCCN)NC(=O)[C@H](CCCCN)NC(=O)[C@H](CC(C)C)NC(=O)[C@H](C)NC(=O)[C@H](CCCCN)NC(=O)[C@H](CC(C)C)NC(=O)[C@@H](N)CC(C)C)C(N)=O` [LLKALKKLLKKLL] was run?
Answer: 26.3 µM (≈ 40 µg/mL)

Question: And the MIC [4]?
Answer: 3.29 µM (≈ 5 µg/mL)

Question: And the MIC [5]?
Answer: 6.57 µM (≈ 9.99 µg/mL)

Question: And the MIC [6]?
Answer: 6.57 µM (≈ 9.99 µg/mL)

Question: What about the MIC [7] of the same compound?
Answer: 26.3 µM (≈ 40 µg/mL)

Question: What about the MIC (Botrytis cinerea) of the same compound?
Answer: ≥ 65.7 µM

Question: What about the MIC [8] of the same compound?
Answer: 6.57 µM (≈ 9.99 µg/mL)

Question: And the MIC [10]?
Answer: 1.5 µM (≈ 2.28 µg/mL)

Question: And the MIC (Alternaria alternata)?
Answer: ≥ 65.7 µM

Question: What about the MIC [9] of the same compound?
Answer: 26.3 µM (≈ 40 µg/mL)

Question: `CC(C)[C@H](NC(=O)CNC(=O)[C@H](CCC(N)=O)NC(=O)[C@@H](NC(=O)[C@@H](NC(=O)[C@@H]1CCCN1C(=O)[C@H](CCCN=C(N)N)NC(=O)[C@@H](NC(=O)CNC(=O)[C@@H](N)CCCN=C(N)N)C(C)C)C(C)C)C(C)C)C(=O)N[C@@H](CCCCN)C(=O)N[C@@H](CCC(=O)O)C(=O)N[C@@H](CCCCN)C(=O)N[C@H](C(=O)N[C@@H](CCCN=C(N)N)C(=O)O)C(C)C` [RGVRPVVQGVKEKVR] was tested. Which MIC [11] did it give?
Answer: ≥ 37.5 µM

Question: What about the MIC [12] of the same compound?
Answer: ≥ 37.5 µM

Question: What about the MIC [13] of the same compound?
Answer: > 37.5 µM

Question: What about the MIC [14] of the same compound?
Answer: > 37.5 µM

Question: And the MIC [15]?
Answer: > 37.5 µM

Question: And the MIC [16]?
Answer: ≥ 37.5 µM

Question: And the MIC [17]?
Answer: ≥ 37.5 µM

Question: What about the MIC [18] of the same compound?
Answer: ≥ 37.5 µM

Question: What about the MIC [19] of the same compound?
Answer: ≥ 37.5 µM

Question: What about the MIC [20] of the same compound?
Answer: ≥ 37.5 µM

Question: For `CC(C)C[C@H](NC(=O)[C@H](CC(C)C)NC(=O)[C@H](CCCCN)NC(=O)[C@@H](NC(=O)[C@H](CCCN=C(N)N)NC(=O)[C@H](CCCCN)NC(=O)[C@H](CCCCN)NC(=O)[C@@H](N)CCCN=C(N)N)C(C)C)C(=O)N[C@@H](CCCCN)C(=O)N[C@@H](CCCN=C(N)N)C(=O)N[C@@H](CC(C)C)C(=O)N[C@H](C(N)=O)C(C)C` [RKKRVKLLKRLV], which MIC [4] is on record?
Answer: 3.25 µM (≈ 5 µg/mL)

Question: What about the MIC [5] of the same compound?
Answer: 3.25 µM (≈ 5 µg/mL)

Question: And the MIC [6]?
Answer: 1.63 µM (≈ 2.5 µg/mL)

Question: And the MIC [7]?
Answer: 0.325 µM (≈ 0.5 µg/mL)

Question: What about the MIC [8] of the same compound?
Answer: 6.51 µM (≈ 9.99 µg/mL)

Question: What about the MIC [10] of the same compound?
Answer: ≥ 62.5 µM

Question: And the MIC [9]?
Answer: 6.51 µM (≈ 9.99 µg/mL)

Question: `NC(N)=NCCC[C@H](NC(=O)[C@H](Cc1cnc[nH]1)NC(=O)[C@H](Cc1c[nH]c2ccccc12)NC(=O)[C@H](Cc1ccccc1)NC(=O)[C@H](CCCN=C(N)N)NC(=O)[C@@H](N)CCCN=C(N)N)C(=O)O` [RRFWHR] was tested. Which MIC (Escherichia coli AS1.349) did it give?
Answer: ≥ 100 µM

Question: And the MIC [21]?
Answer: ≥ 100 µM

Question: And the MIC [22]?
Answer: ≥ 100 µM

Question: What about the MIC [23] of the same compound?
Answer: ≥ 100 µM

Question: And the MIC [24]?
Answer: ≥ 100 µM

Question: And the MIC (Bacillus cereus AS1.126)?
Answer: ≥ 100 µM

Question: And the MIC [25]?
Answer: ≥ 100 µM

Question: Which results are given for `CC[C@H](C)[C@H](NC(=O)[C@@H](N)Cc1c[nH]c2ccccc12)C(=O)N[C@@H](CCC(N)=O)C(=O)N1CCC[C@H]1C(=O)N[C@@H](CCCCN)C(=O)N[C@H](C(=O)N[C@@H](CCCCN)C(=O)N[C@H](C(=O)N[C@@H](C)C(=O)N1CCC[C@H]1C(=O)N[C@@H](Cc1ccc(O)cc1)C(=O)N[C@H](C(=O)N[C@@H](CCCN=C(N)N)C(=O)N[C@@H](Cc1ccc(O)cc1)C(=O)N[C@@H](CC(C)C)C(=O)O)C(C)C)C(C)C)[C@@H](C)O` [WIQPKTKVAPYVRYL]?
Answer: MIC [26]: 19.5 µM (≈ 36.4 µg/mL); MIC [27]: ≥ 78.1 µM

Question: Which MIC [26] does the source give for `CC[C@H](C)[C@H](NC(=O)[C@@H](N)Cc1c[nH]c2ccccc12)C(=O)N[C@@H](CCC(N)=O)C(=O)N1CCC[C@H]1C(=O)N[C@@H](CCCCN)C(=O)N[C@H](C(=O)N[C@@H](CCCCN)C(=O)N[C@H](C(=O)N[C@H](C(=O)N1CCC[C@H]1C(=O)N[C@@H](C)C(=O)N[C@H](C(=O)N[C@@H](CCCN=C(N)N)C(=O)N[C@@H](Cc1ccc(O)cc1)C(=O)N[C@@H](CC(C)C)C(=O)O)C(C)C)[C@@H](C)CC)C(C)C)[C@@H](C)O` [WIQPKTKVIPAVRYL] here?
Answer: ≥ 39.1 µM

Question: What about the MIC [27] of the same compound?
Answer: ≥ 78.1 µM
